Holding throughout (type): functional
The subject of assay [1] is Staphylococcus aureus. The assay is described as follows: Minimum inhibitory concentration against growth of Methicillin resistant […] aureus.
Assay [2] deals with Staphylococcus aureus. The assay is described as follows: Minimum inhibitory concentration against growth of […] aureus (ATCC 29213).
The test system of assay [3] is Enterococcus faecalis. Description: Minimum inhibitory concentration against growth of Enterococcus faecalis (ATCC 29212).
The subject of assay [4] is Enterococcus faecalis. Description: Minimum inhibitory concentration against growth of vancomycin-resistant Enterococcus faecalis (ATCC 51299).

Converted amounts (≈) assume the structure as drawn.

By MIC is commonly meant the smallest concentration in the dilution series that meets the test's criterion for growth inhibition. A low value points to greater potency. As for `C/C=C/CN[C@H](CC(C)C)C(=O)N[C@H]1C(=O)N[C@@H](CC(N)=O)C(=O)N[C@H]2C(=O)N[C@H]3C(=O)N[C@H](C(=O)N[C@H](C(=O)NCC(=O)O)c4cc(O)cc(O)c4-c4cc3ccc4O)[C@H](O)c3ccc(c(Cl)c3)Oc3cc2cc(c3O[C@@H]2O[C@@H](CO)[C@@H](O)[C@H](O)[C@@H]2O[C@H]2C[C@](C)(Nc3ccc(OC)cc3)[C@H](O)[C@H](C)O2)Oc2ccc(cc2Cl)[C@H]1O`, the minimum inhibitory concentration (MIC) is 10 µg/mL (≈ 6.05 µM) in assay [1], 10 µg/mL (≈ 6.05 µM) in assay [2], above 10 µg/mL in assay [3] and above 10 µg/mL in assay [4].
For the molecule `CCC(CC)N[C@H](CC(C)C)C(=O)N[C@H]1C(=O)N[C@@H](CC(N)=O)C(=O)N[C@H]2C(=O)N[C@H]3C(=O)N[C@H](C(=O)N[C@H](C(=O)NCC(=O)O)c4cc(O)cc(O)c4-c4cc3ccc4O)[C@H](O)c3ccc(c(Cl)c3)Oc3cc2cc(c3O[C@@H]2O[C@@H](CO)[C@@H](O)[C@H](O)[C@@H]2O[C@H]2C[C@](C)(N)[C@H](O)[C@H](C)O2)Oc2ccc(cc2Cl)[C@H]1O`, the MIC is 10 µg/mL (≈ 6.4 µM) in assay [1], 10 µg/mL (≈ 6.4 µM) in assay [2], above 10 µg/mL in assay [3] and above 10 µg/mL in assay [4].
Consider `CC(C)C[C@H](C(=O)N[C@H]1C(=O)N[C@@H](CC(N)=O)C(=O)N[C@H]2C(=O)N[C@H]3C(=O)N[C@H](C(=O)N[C@H](C(=O)NCC(=O)O)c4cc(O)cc(O)c4-c4cc3ccc4O)[C@H](O)c3ccc(c(Cl)c3)Oc3cc2cc(c3O[C@@H]2O[C@@H](CO)[C@@H](O)[C@H](O)[C@@H]2O[C@H]2C[C@](C)(Nc3cccnc3)[C@H](O)[C@H](C)O2)Oc2ccc(cc2Cl)[C@H]1O)N(CCc1ccccc1)CCc1ccccc1`, for which the MIC in assay [1], in assay [2], in assay [3] and in assay [4] was above 10 µg/mL in each case.
In the case of `CC(C)C[C@@H](N)C(=O)N[C@H]1C(=O)N[C@@H](CC(N)=O)C(=O)N[C@H]2C(=O)N[C@H]3C(=O)N[C@H](C(=O)N[C@H](C(=O)NCC(=O)O)c4cc(O)cc(O)c4-c4cc3ccc4O)[C@H](O)c3ccc(c(Cl)c3)Oc3cc2cc(c3O[C@@H]2O[C@@H](CO)[C@@H](O)[C@H](O)[C@@H]2O[C@H]2C[C@](C)(Nc3ccc(F)cc3)[C@H](O)[C@H](C)O2)Oc2ccc(cc2Cl)[C@H]1O`, the MIC was 2.5 µg/mL (≈ 1.58 µM) in assay [1], 2.5 µg/mL (≈ 1.58 µM) in assay [2], 2.5 µg/mL (≈ 1.58 µM) in assay [3] and above 10 µg/mL in assay [4].
Turning to `CCC(CC)N[C@H](CC(C)C)C(=O)N[C@H]1C(=O)N[C@@H](CC(N)=O)C(=O)N[C@H]2C(=O)N[C@H]3C(=O)N[C@H](C(=O)N[C@H](C(=O)NCC(=O)O)c4cc(O)cc(O)c4-c4cc3ccc4O)[C@H](O)c3ccc(c(Cl)c3)Oc3cc2cc(c3O[C@@H]2O[C@@H](CO)[C@@H](O)[C@H](O)[C@@H]2OC2C[C@](C)(NC(CC)CC)[C@H](O)[C@H](C)O2)Oc2ccc(cc2Cl)[C@H]1O` (single isomer, unassigned), the MIC in assay [1], in assay [2], in assay [3] and in assay [4] was above 10 µg/mL each time.
Turning to `CC(C)C[C@H](C(=O)N[C@H]1C(=O)N[C@@H](CC(N)=O)C(=O)N[C@H]2C(=O)N[C@H]3C(=O)N[C@H](C(=O)N[C@H](C(=O)NCC(=O)O)c4cc(O)cc(O)c4-c4cc3ccc4O)[C@H](O)c3ccc(c(Cl)c3)Oc3cc2cc(c3O[C@@H]2O[C@@H](CO)[C@@H](O)[C@H](O)[C@@H]2O[C@H]2C[C@](C)(N)[C@H](O)[C@H](C)O2)Oc2ccc(cc2Cl)[C@H]1O)N(C)C(=O)OCC1c2ccccc2-c2ccccc21`, the minimum inhibitory concentration (MIC) is 10 µg/mL (≈ 5.79 µM) in assay [1], 10 µg/mL (≈ 5.79 µM) in assay [2], 10 µg/mL (≈ 5.79 µM) in assay [3] and above 10 µg/mL in assay [4].
Take `CCC(CC)N[C@H](CC(C)C)C(=O)N[C@H]1C(=O)N[C@@H](CC(N)=O)C(=O)N[C@H]2C(=O)N[C@H]3C(=O)N[C@H](C(=O)N[C@H](C(=O)NCC(=O)O)c4cc(O)cc(O)c4-c4cc3ccc4O)[C@H](O)c3ccc(c(Cl)c3)Oc3cc2cc(c3O[C@@H]2O[C@@H](CO)[C@@H](O)[C@H](O)[C@@H]2O[C@H]2C[C@](C)(Nc3cccnc3)[C@H](O)[C@H](C)O2)Oc2ccc(cc2Cl)[C@H]1O`: the minimum inhibitory concentration (MIC) in assay [1], in assay [2], in assay [3] and in assay [4] was above 10 µg/mL throughout.
For the molecule `CC(C)C[C@@H](N)C(=O)N[C@H]1C(=O)N[C@@H](CC(N)=O)C(=O)N[C@H]2C(=O)N[C@H]3C(=O)N[C@H](C(=O)N[C@H](C(=O)NCC(=O)O)c4cc(O)cc(O)c4-c4cc3ccc4O)[C@H](O)c3ccc(c(Cl)c3)Oc3cc2cc(c3O[C@@H]2O[C@@H](CO)[C@@H](O)[C@H](O)[C@@H]2O[C@H]2C[C@](C)(Nc3ccc(Cl)cc3)[C@H](O)[C@H](C)O2)Oc2ccc(cc2Cl)[C@H]1O`, the MIC is 5 µg/mL (≈ 3.12 µM) in assay [1], 5 µg/mL (≈ 3.12 µM) in assay [2], 10 µg/mL (≈ 6.24 µM) in assay [3] and above 10 µg/mL in assay [4].
As for `CCCN[C@H](CC(C)C)C(=O)N[C@H]1C(=O)N[C@@H](CC(N)=O)C(=O)N[C@H]2C(=O)N[C@H]3C(=O)N[C@H](C(=O)N[C@H](C(=O)NCC(=O)O)c4cc(O)cc(O)c4-c4cc3ccc4O)[C@H](O)c3ccc(c(Cl)c3)Oc3cc2cc(c3O[C@@H]2O[C@@H](CO)[C@@H](O)[C@H](O)[C@@H]2O[C@H]2C[C@](C)(Nc3ccc(Cl)cc3)[C@H](O)[C@H](C)O2)Oc2ccc(cc2Cl)[C@H]1O`, the minimal inhibitory concentration (MIC) in assay [1] is 10 µg/mL (≈ 6.08 µM); in assay [2] it was 10 µg/mL (≈ 6.08 µM); in assay [3], above 10 µg/mL; in assay [4], above 10 µg/mL.
As to `CCCN[C@H](CC(C)C)C(=O)N[C@H]1C(=O)N[C@@H](CC(N)=O)C(=O)N[C@H]2C(=O)N[C@H]3C(=O)N[C@H](C(=O)N[C@H](C(=O)NCC(=O)O)c4cc(O)cc(O)c4-c4cc3ccc4O)[C@H](O)c3ccc(c(Cl)c3)Oc3cc2cc(c3O[C@@H]2O[C@@H](CO)[C@@H](O)[C@H](O)[C@@H]2O[C@H]2C[C@](C)(Nc3ccc(-c4ccccc4)cc3)[C@H](O)[C@H](C)O2)Oc2ccc(cc2Cl)[C@H]1O`, the minimum inhibitory concentration (MIC) in assay [1] is 5 µg/mL (≈ 2.96 µM); in assay [2], 5 µg/mL (≈ 2.96 µM); in assay [3] it was 10 µg/mL (≈ 5.93 µM); in assay [4] it was above 10 µg/mL.
`CC(C)C[C@H](C(=O)N[C@H]1C(=O)N[C@@H](CC(N)=O)C(=O)N[C@H]2C(=O)N[C@H]3C(=O)N[C@H](C(=O)N[C@H](C(=O)NCC(=O)O)c4cc(O)cc(O)c4-c4cc3ccc4O)[C@H](O)c3ccc(c(Cl)c3)Oc3cc2cc(c3O[C@@H]2O[C@@H](CO)[C@@H](O)[C@H](O)[C@@H]2O[C@H]2C[C@](C)(NC(=O)OCC3c4ccccc4-c4ccccc43)[C@H](O)[C@H](C)O2)Oc2ccc(cc2Cl)[C@H]1O)N(C)C(=O)OCC1c2ccccc2-c2ccccc21`: the minimal inhibitory concentration (MIC) is 5 µg/mL (≈ 2.56 µM) in assay [1], above 10 µg/mL in assay [2], 10 µg/mL (≈ 5.13 µM) in assay [3] and 5 µg/mL (≈ 2.56 µM) in assay [4].
In the case of `CN[C@H](CC(C)C)C(=O)N[C@H]1C(=O)N[C@@H](CC(N)=O)C(=O)N[C@H]2C(=O)N[C@H]3C(=O)N[C@H](C(=O)N[C@H](C(=O)NCC(=O)O)c4cc(O)cc(O)c4-c4cc3ccc4O)[C@H](O)c3ccc(c(Cl)c3)Oc3cc2cc(c3O[C@@H]2O[C@@H](CO)[C@@H](O)[C@H](O)[C@@H]2O[C@H]2C[C@](C)(NC(=O)OCC3c4ccccc4-c4ccccc43)[C@H](O)[C@H](C)O2)Oc2ccc(cc2Cl)[C@H]1O`, the MIC is 5 µg/mL (≈ 2.89 µM) in assay [1], above 10 µg/mL in assay [2], 10 µg/mL (≈ 5.79 µM) in assay [3] and 5 µg/mL (≈ 2.89 µM) in assay [4].
Regarding `CCCN(CCC)[C@H](CC(C)C)C(=O)N[C@H]1C(=O)N[C@@H](CC(N)=O)C(=O)N[C@H]2C(=O)N[C@H]3C(=O)N[C@H](C(=O)N[C@H](C(=O)NCC(=O)O)c4cc(O)cc(O)c4-c4cc3ccc4O)[C@H](O)c3ccc(c(Cl)c3)Oc3cc2cc(c3O[C@@H]2O[C@@H](CO)[C@@H](O)[C@H](O)[C@@H]2O[C@H]2C[C@](C)(Nc3ccc(F)cc3)[C@H](O)[C@H](C)O2)Oc2ccc(cc2Cl)[C@H]1O`, the minimum inhibitory concentration (MIC) in assay [1], in assay [2], in assay [3] and in assay [4] was above 10 µg/mL in each case.
In the case of `CN[C@H](CC(C)C)C(=O)N[C@H]1C(=O)N[C@@H](CC(N)=O)C(=O)N[C@H]2C(=O)N[C@H]3C(=O)N[C@H](C(=O)N[C@H](C(=O)O)c4cc(O)cc(O)c4-c4cc3ccc4O)[C@H](O)c3ccc(c(Cl)c3)Oc3cc2cc(c3O[C@@H]2O[C@H](CO)[C@@H](O)[C@H](O)[C@H]2O[C@H]2C[C@](C)(N)[C@H](O)[C@H](C)O2)Oc2ccc(cc2Cl)[C@H]1O` [VANCOMYCIN], the MIC in assay [1] is 1.25 µg/mL (≈ 0.863 µM); in assay [2], 0.62 µg/mL (≈ 0.428 µM); in assay [3], 2.5 µg/mL (≈ 1.73 µM); in assay [4] it was above 10 µg/mL.
Regarding `CCC(CC)N[C@H](CC(C)C)C(=O)N[C@H]1C(=O)N[C@@H](CC(N)=O)C(=O)N[C@H]2C(=O)N[C@H]3C(=O)N[C@H](C(=O)N[C@H](C(=O)NCC(=O)O)c4cc(O)cc(O)c4-c4cc3ccc4O)[C@H](O)c3ccc(c(Cl)c3)Oc3cc2cc(c3O[C@@H]2O[C@@H](CO)[C@@H](O)[C@H](O)[C@@H]2O[C@H]2C[C@](C)(Nc3ccc(F)cc3)[C@H](O)[C@H](C)O2)Oc2ccc(cc2Cl)[C@H]1O`, the minimal inhibitory concentration (MIC) in assay [1], in assay [2], in assay [3] and in assay [4] was above 10 µg/mL throughout.
As to `CCC(CC)N[C@H](CC(C)C)C(=O)N[C@H]1C(=O)N[C@@H](CC(N)=O)C(=O)N[C@H]2C(=O)N[C@H]3C(=O)N[C@H](C(=O)N[C@H](C(=O)NCC(=O)O)c4cc(O)cc(O)c4-c4cc3ccc4O)[C@H](O)c3ccc(c(Cl)c3)Oc3cc2cc(c3O[C@@H]2O[C@@H](CO)[C@@H](O)[C@H](O)[C@@H]2O[C@H]2C[C@](C)(Nc3ccc(-c4ccccc4)cc3)[C@H](O)[C@H](C)O2)Oc2ccc(cc2Cl)[C@H]1O`, the minimal inhibitory concentration (MIC) was 2.5 µg/mL (≈ 1.46 µM) in assay [1], 5 µg/mL (≈ 2.92 µM) in assay [2], 5 µg/mL (≈ 2.92 µM) in assay [3] and above 10 µg/mL in assay [4].

Values taken from ChEMBL document CHEMBL1144385, “Solid-phase synthesis and antibacterial evaluations of N-demethylvancomycin derivatives” (2005).
